Assay results published in article PMC12508057, “Discovery of ETI41 and ETI60: novel selective endosomal Toll-like receptor inhibitors for the treatment of autoimmune diseases” (Experimental & Molecular Medicine, 2025).

What was measured:
Format in all cases: cell-based
TLR9 = biological target: T1, TLR9 (Mus musculus, UniProt Q9EQU3); assay: TLR9 inhibition, TNF-α secretion (ELISA) in RAW 264.7; details: RAW 264.7 cell line; read-out: TLR9 IC50 (mTNFα)
T1 construct: endogenous in cells; host or cells: RAW 264.7
T1 sequence (Q9EQU3 26-1032): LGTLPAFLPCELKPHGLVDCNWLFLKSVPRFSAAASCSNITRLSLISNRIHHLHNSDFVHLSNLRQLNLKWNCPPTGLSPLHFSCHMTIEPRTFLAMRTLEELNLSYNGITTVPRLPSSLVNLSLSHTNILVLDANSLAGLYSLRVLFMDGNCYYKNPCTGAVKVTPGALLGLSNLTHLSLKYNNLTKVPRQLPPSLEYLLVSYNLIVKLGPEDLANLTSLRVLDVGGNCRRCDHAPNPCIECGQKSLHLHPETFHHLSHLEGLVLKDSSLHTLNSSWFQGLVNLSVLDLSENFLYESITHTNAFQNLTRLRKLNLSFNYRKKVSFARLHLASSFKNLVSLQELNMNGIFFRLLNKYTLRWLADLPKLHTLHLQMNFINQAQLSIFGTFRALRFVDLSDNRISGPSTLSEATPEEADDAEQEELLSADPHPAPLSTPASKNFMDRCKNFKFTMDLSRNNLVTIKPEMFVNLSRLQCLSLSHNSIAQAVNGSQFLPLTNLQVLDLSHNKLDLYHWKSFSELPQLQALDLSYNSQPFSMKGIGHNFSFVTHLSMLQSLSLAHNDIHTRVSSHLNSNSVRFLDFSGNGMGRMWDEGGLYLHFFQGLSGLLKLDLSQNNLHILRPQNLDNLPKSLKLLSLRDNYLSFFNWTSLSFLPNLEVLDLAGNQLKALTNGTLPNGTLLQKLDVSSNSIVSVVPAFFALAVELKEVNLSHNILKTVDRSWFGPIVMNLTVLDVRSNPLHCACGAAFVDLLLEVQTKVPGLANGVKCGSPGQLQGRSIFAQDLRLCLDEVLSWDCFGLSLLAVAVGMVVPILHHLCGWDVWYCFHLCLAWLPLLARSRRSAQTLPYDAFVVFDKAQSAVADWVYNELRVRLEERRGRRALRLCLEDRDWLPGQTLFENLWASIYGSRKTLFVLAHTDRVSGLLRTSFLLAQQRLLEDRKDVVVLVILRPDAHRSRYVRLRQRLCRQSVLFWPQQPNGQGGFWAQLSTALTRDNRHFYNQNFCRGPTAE
Protocol: (§1) RAW 264.7 and differentiated THP-1 cells were seeded into 96-well plates at 2 × 10^4 cells per well, while Daudi cells were seeded at 5 × 10^4 cells per well. After stabilization for 30 min, cells were stimulated with specific TLR agonists for 4 or 24 h. Supernatants were diluted and transferred to precoated ELISA plates to measure TNF-α secretion using kits from Invitrogen. Optical absorbance was measured using a BioTek Synergy HTX multimode microplate reader, and data were interpolated using BioTek Gen5 software.
(§2) One-tailed paired Student’s t-tests were performed using Microsoft Excel (Microsoft). Semi-logarithmic conversions and nonregression curve analyses for calculating 50% lethal concentration (LC50) and 50% inhibitory concentration (IC50) values were conducted using GraphPad Prism 7.0 (GraphPad). The therapeutic index was calculated as […]. Animal experimental results are expressed as mean ± standard deviation and analyzed using SPSS v.20 (IBM SPSS Statistics). Homogeneity of variance was assessed using Levene’s test.
(§3) The cells were activated with agonistic ligands: […], TLR3 (poly I:C, 2 μg/ml, 24 h), TLR4 (LPS, 10 or 100 ng/ml, 4 h), TLR5 (FLA-ST, 500 ng/ml, 4 h), TLR7 (ORN06/LyoVec, 2 μg/ml, 24 h; and IMQ, 1 μg/ml, 4 h), TLR8 (TL8-506, 2 μg/ml, 24 h) and TLR9 (ODN2395, 1 μM, 4 h) at various concentrations in RAW 264.7 cells, human Daudi cells and THP-1 cells. Data are from at least three independent experiments (n = 3) and statistical differences between the induced case and other cases were analyzed and verified using a one-tailed Student’s t-test (*P < 0.05, **P < 0.01, ***P < 0.001).

[1] = MTT assay, cell survival in RAW 264.7; details: mouse, RAW 264.7 cells, RAW 264.7 cell line, read-out: LC50
Protocol: After 24 h, the supernatant was removed, and 500 μg/ml of 3-[4,5-dimethylthiazol-2-yl]-2,5 diphenyl tetrazolium bromide (MTT) solution (Invivogen) was added. After a 3 h incubation, the supernatant was removed, and DMSO was added to dissolve the formazan dye.
One-tailed paired Student’s t-tests were performed using Microsoft Excel (Microsoft). […] The therapeutic index was calculated as […]. Animal experimental results are expressed as mean ± standard deviation and analyzed using SPSS v.20 (IBM SPSS Statistics). Homogeneity of variance was assessed using Levene’s test.
Data are from at least three independent experiments (n = 3) and statistical differences between the induced case and other cases were analyzed and verified using a one-tailed Student’s t-test (*P < 0.05, **P < 0.01, ***P < 0.001).

endosomal TLRs = assay: Endosomal TLR-mediated TNF-α production, summary over cell lines; details: dose-dependent, without inducing cytotoxic effects
Protocol: as §1
TLR activation triggers the NF-κB pathway, resulting in increased production of pro-inflammatory cytokines, such as TNF-α and IL-6.

TLR7 = biological target: T2, TLR7 (Mus musculus, UniProt P58681); assay: TLR7 inhibition, TNF-α secretion (ELISA) in RAW 264.7
T2 construct: endogenous in cells; host or cells: RAW 264.7
T2 sequence (P58681 27-1050): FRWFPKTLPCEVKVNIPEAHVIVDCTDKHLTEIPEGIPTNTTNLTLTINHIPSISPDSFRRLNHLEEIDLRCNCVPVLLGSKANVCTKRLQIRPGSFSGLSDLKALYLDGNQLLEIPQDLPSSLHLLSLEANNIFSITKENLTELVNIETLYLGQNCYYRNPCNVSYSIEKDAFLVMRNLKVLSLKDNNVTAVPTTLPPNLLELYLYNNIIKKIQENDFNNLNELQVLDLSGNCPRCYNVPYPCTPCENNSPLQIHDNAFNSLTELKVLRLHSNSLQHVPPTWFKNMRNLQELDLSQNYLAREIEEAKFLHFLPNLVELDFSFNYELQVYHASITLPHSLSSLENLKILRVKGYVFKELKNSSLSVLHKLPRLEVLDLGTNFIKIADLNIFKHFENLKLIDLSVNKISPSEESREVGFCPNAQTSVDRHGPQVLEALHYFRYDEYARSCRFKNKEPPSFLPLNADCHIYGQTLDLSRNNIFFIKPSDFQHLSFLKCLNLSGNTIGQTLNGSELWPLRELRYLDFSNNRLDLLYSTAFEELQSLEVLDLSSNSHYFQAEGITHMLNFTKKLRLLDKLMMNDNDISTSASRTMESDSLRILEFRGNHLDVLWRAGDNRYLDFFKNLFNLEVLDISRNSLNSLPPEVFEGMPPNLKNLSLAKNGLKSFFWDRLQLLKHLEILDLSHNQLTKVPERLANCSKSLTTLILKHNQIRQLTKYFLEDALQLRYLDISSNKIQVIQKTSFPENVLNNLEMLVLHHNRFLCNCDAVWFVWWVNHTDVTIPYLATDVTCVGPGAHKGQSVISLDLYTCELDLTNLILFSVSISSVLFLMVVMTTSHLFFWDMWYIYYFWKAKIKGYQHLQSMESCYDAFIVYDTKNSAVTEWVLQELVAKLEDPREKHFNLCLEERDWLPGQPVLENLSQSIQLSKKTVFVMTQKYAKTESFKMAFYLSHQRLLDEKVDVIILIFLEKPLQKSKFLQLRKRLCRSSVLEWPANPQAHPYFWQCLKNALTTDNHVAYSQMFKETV
Protocol: as §1, §2, §3

Cc1c(C)n(CCCN(C)C)c2nc3c(c(N)c12)CCCCC3 [ETI15, 1-(3-(dimethylamino)propyl)-2,3-dimethyl-1,5,6,7,8,9-hexahydrocyclohepta[b]pyrrolo[3,2-e]pyridin-4-amine]
IC50 (TLR9): 0.36 µM | CC50 at 24 h [1]: 67.9 µM | TNF-α production by RAW 264.7 and Daudi cells (endosomal TLRs): effectively inhibited | IC50 (TLR7; RAW 264.7 cell line, read-out: TLR7 IC50 (mTNFα)): 2.81 µM | TLR7 TI value (TLR7; therapeutic index, RAW 264.7): 24.16
